Data: US20090275562A1 (Cypress Biosciences, Inc., priority 2008, published 2009)

Columns and labels:
[1] = Example 1A clinical study, 6-week weight gain/loss with mirtazapine and reboxetine; assay type: in vivo, human; conditions: for Mean Change from Baseline (weight): Week 6, 4 mg reboxetine morning, 15 mg mirtazapine evening, female volunteers; for mean change in body mass over the course of the study, in words (FIGS. 1-4): completers with fasted body mass at baseline and end of week 6; for 6-week weight gain (or loss), in words: versus placebo, 6 weeks of therapy
Method: All medications were administered in an over-encapsulated format that ensures blinding of study participants, staff and investigators. All subjects received a total of 6 weeks of therapy. Vital signs and weight assessments were made at clinic visits at the beginning and end of the study and at various times during the study. Patient outcomes of sleep quality and propensity were evaluated using the Karolinska Sleepiness Scale (KSS) and the Epworth Sleepiness Scale (ESS). Standard safety review was also conducted for each of the subjects, including recordation of any adverse events.
Sensitivity analysis was performed for completers and for intention-to-treat, last observation carried forward ([…]).

[2] = Example 4 tolerability study of mirtazapine and betahistine in healthy subjects; assay type: in vivo, human; conditions: 6 weeks; 15 mg mirtazapine evening, 8 or 16 mg betahistine morning; present-tense example
Method: (§1) The subjects receive 2 capsules per day, one in the morning and one at bedtime. […] All medications are administered in an over-encapsulated format that ensures blinding of study participants, staff and investigators. All subjects are scheduled to receive a total of 6 weeks of therapy, and are required to return to the clinics after 1, 2, 4 and 6 weeks of therapy. Patients are required to complete paper self-assessments, electronic diary assessments, computer based cognitive testing, as well as vital signs and weight assessments at the clinic visits.

[3] = tested on: 5-HT and NA reuptake sites; conditions: from U.S. Pat. No. 6,642,235; cited from earlier work
[4] = Example 1 tolerability study of mirtazapine and reboxetine in healthy subjects; assay type: in vivo, human; conditions: 6 weeks; 15 mg mirtazapine evening, 2 or 4 mg reboxetine morning; present-tense example
Method: as §1

[5] = controlled studies, cited from earlier work
[6] = Completers and MF (morning fasting) weight

Row | Mean Change from Baseline (weight) [1, 6] [kg] | Mean Change from Baseline (weight) ([1]; Completers and NMF weight) [kg] | Mean Change from Baseline (weight) ([1]; ITT-LOCF & NMF weight) [kg] | Mean Change from Baseline (weight) ([1]; ITT-LOCF and MF weight) [kg] | mean change in body mass over the course of the study, in words (FIGS. 1-4) [1] | 6-week weight gain (or loss), in words [1] | Compound | side effects caused, in words [2] | norepinephrine reuptake inhibitor selectivity (Ki5HT/KiNA) [3] | side effects caused, in words [4] | increase in body weight / weight gain ([1]; 6 weeks, text summary of the tables (values of Table 1A-1, mean ± standard error)) [kg] | weight gain of greater than or equal to 7% of body weight, share of patients ([5]; placebo 0%) [%] | appetite increase reported, share of patients ([5]; placebo 2%) [%]
1 | -1.61 | -1.7 | -1.693 | -1.685 | decrease in body mass | weight loss as compared to placebo-only | CCOc1ccccc1OC(c1ccccc1)C1CNCCO1 (racemic) [reboxetine, 2-[(2-ethoxyphenoxy)-phenyl-methyl]morpholine] | insomnia, nausea/vomiting, and weight loss | about 80 | insomnia, nausea/vomiting, and weight loss | – | – | –
2 | 2.215 | 1.943 | 1.8 | 2.043 | marked increase in body mass | significantly greater weight gain | CN1CCN2c3ncccc3Cc3ccccc3C2C1 (stereo not drawn) [mirtazapine, 1,2,3,4,10,14b-hexahydro-2-methylpyrazino[2,1-a]pyrido[2,3-c]benzazepine] | weight gain, sedation, and cognitive deficits | – | weight gain, sedation, and cognitive deficits | 2.215 ± 0.385 | – | –
3 | – | – | – | – | – | – | CN(C)CCC=C1c2ccccc2CCc2ccccc21 [amitriptyline] | – | – | – | – | 5.9 | 6
4 | – | – | – | – | – | – | (S,S)reboxetine | – | about 12,700 | – | – | – | –
